Patent US5049550A, “Diadenosine 5', 5'"-p^1, p^4,-tetraphosphate analogs as antithrombotic agents” (Worcester Foundation for Experimental Biology, priority 1988, dated 1991)
pIC50, pKi: −log10 of the molar value. Entries after “also recorded” stand apart in the source; their conditions may differ. Like-named read-outs stand apart in the source and are kept apart here. Values belong to the compound of their own block, whether it stands above or below them.

How the values were obtained:
[1] = test system: ADP-Induced Platelet Aggregation; assay: ADP-induced platelet aggregation in human platelet-rich plasma; assay type: cell-based; conditions: for inhibition of platelet aggregation (in words): FIG. 5 at 12.5 μM; for inhibition of platelet aggregation compared with E10: ADP; for effect on platelet inhibition at 50 μM: even at 50 μM
Procedure: Human platelet-rich plasma was pre-incubated at 37° C. with the appropriate analogue for 1 minute. Aggregation was then induced by 5 μM ADP. ID50 values (i.e. concentration of analogue at which platelets are inhibited by 50 percent) were obtained from log-dose response plots.
FIG. 5 is a graphic representation of the data.
This Example illustrates that sulfur-containing analogues of AP4 A are as effective as E10 in inhibiting aggregation of platelets. Platelet aggregation was induced by ADP and its inhibition measured as in the previous Example.

[2] = test system: Intracarotid Artery Thrombosis; conditions: rabbit model, literature; cited from earlier work
[3] = test system: ADP-induced platelet aggregation; assay: Kinetics of ADP-induced platelet aggregation (double-reciprocal plot); assay type: cell-based; conditions: FIG. 6
Procedure: Changes in light transmission reflecting the velocity of ADP-induced platelet aggregability was determined using a platelet aggregometer. Born, G.V.P., Nature 184:927-929 (1962). […] The Y points on the X-intercept are altered by factors [formula] where I is the concentration of inhibitor, and Ki is a characteristic constant. Points on the X-intercept are given by the expression [formula] intercept when [I]=0. When [I] is known, the equation can be solved for Ki.

[4] = test system: rabbit platelet aggregation by ADP; assay: ADP-induced aggregation of rabbit platelets; assay type: cell-based; conditions: ADP 2×10^-5 M
Procedure: (§1) Rabbit carotid arterial blood was collected in 3.8% sodium citrate (9 volumes blood to 1 volume citrate). Platelet rich plasma (PRP) and platelet poor plasma (PPP) were prepared by centrifugation at 150 g and 1,000 g for 10 minutes respectively. Aggregation studies were performed in a Chrono-Log (Havertown, Pa.) aggregometer with ADP or collagen as aggregating agents. ADP (Sigma Chemical Co.) was used in a final concentration of 2×10^-5 M. Calf skin collagen (Sigma Chemical Co.) was used in a final concentration of 200 ug/ml.
(§2) The effect of AP4 A on rabbit platelet aggregation by ADP and collagen was tested. […] The anti-aggregatory effect of AP4 A was detected at a concentration of 2×10^-4 M (tenfold that of ADP) and increased in a dose-response pattern with increasing concentrations (FIG. 1).

[5] = test system: platelets; conditions: cited from earlier work
[6] = plasma; cited from earlier work
[7] = test system: Intracarotid Artery Thrombosis; assay: Intracarotid cannula arterial thrombosis model in rabbits; assay type: in vivo, rabbit
Procedure: Gurewich, V. and Lipinski, B. Thrombosis Research, 9:101 (1976); Louie, S. and Gurewich, V. Thrombosis Research, 30:323-335 (1983).
Male, New Zealand white rabbits, weighing 2-2.5 kg., were anesthetized with ketamine hydrochloride (100 mg/kg intramuscularly). AP4 A (Boehringer (100 Mannheim Biochemicals, Indianapolis, Ind.), or saline control was infused via a marginal ear vein. A segment of the left common carotid artery was isolated by vascular clamps. A 1 cm. length of polyethylene tubing (PE-90, Clay Adams, Parsippany, N.Y.) was inserted, secured by silk ligatures, and the blood flow re-established by removing the clamps. Blood was sampled from the right carotid artery for assays of AP4 A and ATP, and for platelet aggregation studies.
After preliminary trials, a standard AP4 A infusion protocol was established as follows: A dose of AP4 A at 50 mg/kg was reconstituted in 10 ml of normal saline and infused by pump at a uniform rate over two hours. Control rabbits received 10 ml of saline alone. The intracarotid cannula was inserted, and the re-establishment of blood flow timed at 15 minutes into the infusion. Upon the completion of infusion at 2 hours, the intracarotid tubing was removed, and its contents flushed out into a petri dish. The presence of a clot or of liquid blood contents was noted.
Twenty-five rabbits each were assigned to the experimental group that received AP4 A (50 mg/kg), and the control group that received normal saline alone. The incidence of clot formation in the intracarotid cannula in the two groups was compared by the Chi-Square test.
Initially, twelve rabbits received a constant infusion of E10 over a 2 hour period at a dosage of 100 mg in 10 ml. These intravenous infusions were performed as described above for AP4 A.
In addition, 30 mg of E10 in 3 ml saline was administered as a single injection over a one minute time span at the beginning of the cannulation period.

[8] = test system: rabbit platelet aggregation by collagen; assay: Collagen-induced aggregation of rabbit platelets; assay type: cell-based; conditions: collagen 200 ug/ml
Procedure: as §1, §2

[9] = Homo sapiens, Platelet, Table 3, 5 μM ADP, 1 minute pre-incubation at 37° C., read-out: ID50 (concentration of analogue at which platelets are inhibited by 50 percent)
[10] = Homo sapiens, Platelet, Table 5, sulfur-containing analogues, induced by ADP, read-out: ID50 (the source's name)
[11] = E10 30 mg, single injection over one minute, 6 rabbits
[12] = E10 100 mg, 2 h infusion, 12 rabbits
[13] = E10 total (100 mg + 30 mg series), 18 rabbits

Compound: CCCCCCCCNC(C)C(O)c1ccc(SC(C)C)cc1 (stereo not shown) [suloctidil]
effect on clot formation in intracarotid cannula [2]: can be modified

Compound: Nc1ncnc2c1ncn2[C@@H]1O[C@H](COP(=O)(O)OP(=O)(O)O)[C@@H](O)[C@H]1O [ADP, adenosine diphosphate, reference compound]
Km [3]: 3 µM
platelet aggregation by agonist [4]: prompt and complete platelet aggregation

Compound: CC(=O)Oc1ccccc1C(=O)O [aspirin]
effect on clot formation in intracarotid cannula [2]: can be modified

Compound: Nc1ncnc2c1ncn2[C@@H]1O[C@H](COP(=O)(O)OP(=O)(O)C(F)P(=O)(O)OP(=O)(O)OC[C@H]2O[C@@H](n3cnc4c(N)ncnc43)[C@H](O)[C@@H]2O)[C@@H](O)[C@H]1O (stereo partly shown) [Analogue E5, App(CHF)ppA]
inhibition of platelet aggregation (in words) ([1]; 5 μM ADP): particularly effective; also recorded: the next most effective in inhibiting platelet aggregation
pIC50 [1, 9]: 5.40

Compound: Nc1ncnc2c1ncn2[C@@H]1O[C@H](COP(O)(=S)OP(=O)(O)OP(=O)(O)OP(O)(=S)OC[C@H]2O[C@@H](n3cnc4c(N)ncnc43)[C@H](O)[C@@H]2O)[C@@H](O)[C@H]1O (stereo partly shown) [Analogue E15, Aps ppps A]
pIC50 [1, 10]: 5.22
inhibition of platelet aggregation compared with E10 ([1]; sulfur-containing analogues): an inhibitory effect as great as E10

Compound: Nc1ncnc2c1ncn2[C@@H]1O[C@H](COP(=O)(O)OP(=O)(O)OP(=O)(O)OC[C@H]2O[C@@H](n3cnc4c(N)ncnc43)[C@H](O)[C@@H]2O)[C@@H](O)[C@H]1O [AP3 A, diadenosine 5',5'"-p^1, p^3 -triphosphate]
effect on platelet aggregation [5]: gradual aggregation of platelets; also recorded: immediately reversible upon the addition of AP4 A
degradation products [6]: hydrolysed in plasma to AMP (adenosine monophosphate) and ADP (adenosine diphosphate)

Compound: Nc1ncnc2c1ncn2[C@@H]1O[C@H](COP(=O)(O)OP(=O)(O)CCP(=O)(O)OP(=O)(O)OC[C@H]2O[C@@H](n3cnc4c(N)ncnc43)[C@H](O)[C@@H]2O)[C@@H](O)[C@H]1O [Analogue E3, App(CH2)2 ppA]
pIC50 [1, 9]: 4.96

Compound: Nc1ncnc2c1ncn2[C@@H]1O[C@H](COP(O)(=S)OP(=O)(O)C(F)P(=O)(O)OP(O)(=S)OC[C@H]2O[C@@H](n3cnc4c(N)ncnc43)[C@H](O)[C@@H]2O)[C@@H](O)[C@H]1O (stereo partly shown) [Analogue E13, Aps p(CHF)pps A]
pIC50 [1, 10]: 5.15
inhibition of platelet aggregation compared with E10 ([1]; sulfur-containing analogues): an inhibitory effect as great as E10

Compound: collagen: Calf skin collagen (Sigma Chemical Co.) [reference compound]
platelet aggregation by agonist [8]: prompt and complete platelet aggregation

Compound: Nc1ncnc2c1ncn2[C@@H]1O[C@H](COP(O)(=S)OP(=O)(O)C(F)(F)P(=O)(O)OP(O)(=S)OC[C@H]2O[C@@H](n3cnc4c(N)ncnc43)[C@H](O)[C@@H]2O)[C@@H](O)[C@H]1O (stereo partly shown) [Analogue E14, Aps p(CF2)pps A]
pIC50 [1, 10]: 4.77

Compound: OCCN(CCO)c1nc(N2CCCCC2)c2nc(N(CCO)CCO)nc(N3CCCCC3)c2n1 [dipyridamole]
effect on clot formation in intracarotid cannula [2]: can be modified

Compound: Nc1ncnc2c1ncn2[C@@H]1O[C@H](COP(=O)(O)C(F)P(=O)(O)OP(=O)(O)C(F)P(=O)(O)OC[C@H]2O[C@@H](n3cnc4c(N)ncnc43)[C@H](O)[C@@H]2O)[C@@H](O)[C@H]1O (stereo partly shown) [Analogue E6, Ap(CHF)pp(CHF)pA]
pIC50 [1, 9]: 4.30

The next lines start with results.

pIC50 [1, 9]: 5.22
Compound: Nc1ncnc2c1ncn2[C@@H]1O[C@H](COP(=O)(O)OP(=O)(O)C(F)(F)P(=O)(O)OP(=O)(O)OC[C@H]2O[C@@H](n3cnc4c(N)ncnc43)[C@H](O)[C@@H]2O)[C@@H](O)[C@H]1O [Analogue E8, App(CF2)ppA]

pIC50 [1, 9]: 5.52
pIC50 [1, 10]: > 5.30
Compound: Nc1ncnc2c1ncn2[C@@H]1O[C@H](COP(=O)(O)OP(=O)(O)C(Cl)P(=O)(O)OP(=O)(O)OC[C@H]2O[C@@H](n3cnc4c(N)ncnc43)[C@H](O)[C@@H]2O)[C@@H](O)[C@H]1O (stereo partly shown) [Analogue E10, diadenosine chloromethylene tetraphosphate]
pKi ([3]; competitive inhibition of ADP-induced aggregation): 5.17
type / relative strength of inhibition ([3]; double reciprocal plot): superior to AP4 A as a competitive inhibitor
inhibition of platelet aggregation (in words) ([1]; 5 μM ADP): particularly effective; also recorded: the most effective inhibitor of platelet aggregation; also recorded: potent inhibitor of platelet aggregation; also recorded: potent inhibitors of platelet aggregation and blood clot formation
effect on clot formation compared to saline controls ([7]; E10 30 mg and 100 mg series combined): significantly reduces clot formation
% Clots [7, 11]: 33%
Clot Absent (rabbits) [7, 11]: 4
Clot Present (rabbits) [7, 11]: 2
fraction of rabbits with no incidence of clotting ([7]; E10 100 mg): two-thirds
% Clots [7, 12]: 33%
Clot Absent (rabbits) [7, 12]: 8
Clot Present (rabbits) [7, 12]: 4
% Clots [7, 13]: 33%
Clot Absent (rabbits) [7, 13]: 12
Clot Present (rabbits) [7, 13]: 6

pIC50 ([1]; Table 3, 5 μM ADP, 1 minute pre-incubation at 37° C., read-out: ID50 (concentration of analogue at which platelets are inhibited by 50 percent)): < 4.30
Compound: Nc1ncnc2c1ncn2C1OC(COP(=O)(O)CP(=O)(O)OP(=O)(O)CP(=O)(O)OCC2OC(n3cnc4c(N)ncnc43)C(O)C2O)C(O)C1O (stereo not shown) [Analogue E1, Ap(CH2)pp(CH2)pA]
effect on platelet inhibition at 50 μM [1]: no effect on platelet inhibition

pIC50 [1, 9]: 4.72
Compound: Nc1ncnc2c1ncn2[C@@H]1O[C@H](COP(=O)(O)C(Cl)P(=O)(O)OP(=O)(O)C(Cl)P(=O)(O)OC[C@H]2O[C@@H](n3cnc4c(N)ncnc43)[C@H](O)[C@@H]2O)[C@@H](O)[C@H]1O (stereo partly shown) [Analogue E9, Ap(CHCl)pp(CHCl)pA]

pIC50 [1, 9]: 4.82
Compound: Nc1ncnc2c1ncn2[C@@H]1O[C@H](COP(=O)(O)C(F)(F)P(=O)(O)OP(=O)(O)C(F)(F)P(=O)(O)OC[C@H]2O[C@@H](n3cnc4c(N)ncnc43)[C@H](O)[C@@H]2O)[C@@H](O)[C@H]1O [Analogue E7, Ap(CF2)pp(CF2)pA]

pIC50 [1, 9]: 5.00
Compound: Nc1ncnc2c1ncn2[C@@H]1O[C@H](COP(=O)(O)OP(=O)(O)C(Cl)(Cl)P(=O)(O)OP(=O)(O)OC[C@H]2O[C@@H](n3cnc4c(N)ncnc43)[C@H](O)[C@@H]2O)[C@@H](O)[C@H]1O [Analogue E12, App(CCl2)ppA]

pIC50 [1, 9]: 4.66
Compound: Nc1ncnc2c1ncn2[C@@H]1O[C@H](COP(=O)(O)OP(=O)(O)CP(=O)(O)OP(=O)(O)OC[C@H]2O[C@@H](n3cnc4c(N)ncnc43)[C@H](O)[C@@H]2O)[C@@H](O)[C@H]1O [Analogue E2, App(CH2)ppA]

pIC50 [1, 9]: 5.05
Compound: Nc1ncnc2c1ncn2[C@@H]1O[C@H](COP(=O)(O)C(Cl)(Cl)P(=O)(O)OP(=O)(O)C(Cl)(Cl)P(=O)(O)OC[C@H]2O[C@@H](n3cnc4c(N)ncnc43)[C@H](O)[C@@H]2O)[C@@H](O)[C@H]1O [Analogue E11, Ap(CCL2)pp(CCl2)pA]

pIC50 [1, 9]: < 4.30
Compound: Nc1ncnc2c1ncn2[C@@H]1O[C@H](COP(=O)(O)CP(=O)(O)OP(=O)(O)CP(=O)(O)OC[C@H]2O[C@@H](n3cnc4c(N)ncnc43)[C@H](O)[C@@H]2O)[C@@H](O)[C@H]1O [Analogue E4, Ap(CH2)pp(CH2)pA]
effect on platelet inhibition at 50 μM [1]: no effect on platelet inhibition
